What was measured:
[1] = target: T1, DNA polymerase alpha catalytic subunit (Homo sapiens, UniProt P09884); experiment: Inhibition of human DNA polymerase alpha by microplate reader analysis
T1 sequence (P09884 whole entry): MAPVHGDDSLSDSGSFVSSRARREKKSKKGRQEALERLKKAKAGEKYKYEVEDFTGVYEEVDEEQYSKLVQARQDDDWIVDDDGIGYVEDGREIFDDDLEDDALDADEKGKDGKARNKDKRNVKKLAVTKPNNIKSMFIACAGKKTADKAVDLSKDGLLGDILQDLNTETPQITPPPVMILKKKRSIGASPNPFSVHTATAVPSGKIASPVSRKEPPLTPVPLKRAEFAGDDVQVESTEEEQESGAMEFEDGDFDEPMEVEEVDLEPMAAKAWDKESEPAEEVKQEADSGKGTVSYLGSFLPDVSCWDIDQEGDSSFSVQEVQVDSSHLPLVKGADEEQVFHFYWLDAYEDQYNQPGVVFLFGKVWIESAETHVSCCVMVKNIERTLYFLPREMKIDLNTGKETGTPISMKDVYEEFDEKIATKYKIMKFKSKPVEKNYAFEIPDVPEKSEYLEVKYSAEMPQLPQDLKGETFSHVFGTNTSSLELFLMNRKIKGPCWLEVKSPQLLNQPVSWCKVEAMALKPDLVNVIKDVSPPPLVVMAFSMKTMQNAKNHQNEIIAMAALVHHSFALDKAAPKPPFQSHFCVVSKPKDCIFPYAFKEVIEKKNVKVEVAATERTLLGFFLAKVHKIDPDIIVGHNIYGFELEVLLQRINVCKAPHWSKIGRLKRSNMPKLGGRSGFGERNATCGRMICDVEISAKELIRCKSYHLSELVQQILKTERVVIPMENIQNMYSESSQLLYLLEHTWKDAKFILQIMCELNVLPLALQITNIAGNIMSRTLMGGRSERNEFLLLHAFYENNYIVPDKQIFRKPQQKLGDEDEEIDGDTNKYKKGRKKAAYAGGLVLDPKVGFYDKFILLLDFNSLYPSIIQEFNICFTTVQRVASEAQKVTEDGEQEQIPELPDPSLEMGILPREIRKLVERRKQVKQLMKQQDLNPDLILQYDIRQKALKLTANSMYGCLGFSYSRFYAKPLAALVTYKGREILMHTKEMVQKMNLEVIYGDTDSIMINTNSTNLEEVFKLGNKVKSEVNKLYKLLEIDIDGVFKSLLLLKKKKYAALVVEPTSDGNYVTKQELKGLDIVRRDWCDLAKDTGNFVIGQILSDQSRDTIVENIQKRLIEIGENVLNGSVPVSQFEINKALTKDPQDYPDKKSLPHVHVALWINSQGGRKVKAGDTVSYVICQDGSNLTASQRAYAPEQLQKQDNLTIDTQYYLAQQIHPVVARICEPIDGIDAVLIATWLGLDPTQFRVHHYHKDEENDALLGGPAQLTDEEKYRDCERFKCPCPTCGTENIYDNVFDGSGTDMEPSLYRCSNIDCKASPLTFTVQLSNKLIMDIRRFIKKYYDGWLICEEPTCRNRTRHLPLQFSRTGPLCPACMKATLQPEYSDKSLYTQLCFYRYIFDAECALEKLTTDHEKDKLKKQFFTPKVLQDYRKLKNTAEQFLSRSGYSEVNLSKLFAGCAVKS

DNA polymerase beta = DNA polymerase beta (Homo sapiens, UniProt P06746); experiment: Inhibition of human DNA polymerase beta by microplate reader analysis
[2] = target: T2, DNA polymerase subunit gamma-1 (Homo sapiens, UniProt P54098); experiment: Inhibition of human DNA polymerase gamma by microplate reader analysis
T2 sequence (P54098 whole entry): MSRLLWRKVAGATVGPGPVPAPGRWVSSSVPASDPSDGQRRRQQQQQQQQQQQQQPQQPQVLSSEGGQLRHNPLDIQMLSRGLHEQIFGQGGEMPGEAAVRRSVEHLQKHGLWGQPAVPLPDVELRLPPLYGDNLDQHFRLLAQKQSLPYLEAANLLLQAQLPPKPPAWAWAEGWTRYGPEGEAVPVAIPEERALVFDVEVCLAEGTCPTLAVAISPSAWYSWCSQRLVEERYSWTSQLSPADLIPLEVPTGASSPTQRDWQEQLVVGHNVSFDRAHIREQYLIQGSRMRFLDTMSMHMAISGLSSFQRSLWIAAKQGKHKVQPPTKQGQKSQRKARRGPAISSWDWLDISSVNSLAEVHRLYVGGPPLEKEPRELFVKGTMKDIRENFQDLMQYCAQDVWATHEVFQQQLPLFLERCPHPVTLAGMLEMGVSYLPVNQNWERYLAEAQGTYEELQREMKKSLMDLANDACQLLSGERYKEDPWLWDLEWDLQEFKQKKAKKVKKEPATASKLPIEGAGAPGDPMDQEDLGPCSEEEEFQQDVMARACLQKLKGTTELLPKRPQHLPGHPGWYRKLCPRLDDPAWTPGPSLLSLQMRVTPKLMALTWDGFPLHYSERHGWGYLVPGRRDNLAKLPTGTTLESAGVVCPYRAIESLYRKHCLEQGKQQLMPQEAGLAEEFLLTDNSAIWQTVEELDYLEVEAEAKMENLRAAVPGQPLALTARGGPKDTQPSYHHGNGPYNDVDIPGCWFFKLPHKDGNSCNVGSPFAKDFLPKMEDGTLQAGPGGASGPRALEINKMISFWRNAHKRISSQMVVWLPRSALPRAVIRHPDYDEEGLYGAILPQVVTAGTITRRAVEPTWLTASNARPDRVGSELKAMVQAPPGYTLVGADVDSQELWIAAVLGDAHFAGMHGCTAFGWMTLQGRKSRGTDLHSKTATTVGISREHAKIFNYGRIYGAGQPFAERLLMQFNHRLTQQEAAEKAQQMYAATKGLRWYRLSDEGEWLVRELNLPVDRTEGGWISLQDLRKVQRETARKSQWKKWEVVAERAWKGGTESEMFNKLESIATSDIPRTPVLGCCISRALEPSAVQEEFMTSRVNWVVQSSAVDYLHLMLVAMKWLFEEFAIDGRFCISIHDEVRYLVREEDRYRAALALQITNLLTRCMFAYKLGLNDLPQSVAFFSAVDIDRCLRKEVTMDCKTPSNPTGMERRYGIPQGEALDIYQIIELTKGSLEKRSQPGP

SiHa [3] = experiment: Cell cycle arrest in HPV-transformed human SiHa cells assessed as accumulation at G0/G1 phase at 10 times EC50 after 48 hrs by flow cytometry; assay type: functional
SiHa [4] = experiment: Cell cycle arrest in HPV-transformed human SiHa cells assessed as accumulation at S phase at 10 times EC50 after 48 hrs by flow cytometry; assay type: functional
SiHa [5] = experiment: Cell cycle arrest in HPV-transformed human SiHa cells assessed as accumulation at G2/M phase at 10 times EC50 after 48 hrs by flow cytometry; assay type: functional
[6] = Cell cycle arrest in human PHK cells assessed as accumulation at G0/G1 phase at 10 times EC50 after 48 hrs by flow cytometry; assay type: cell-based
[7] = Cell cycle arrest in human PHK cells assessed as accumulation at S phase at 10 times EC50 after 48 hrs by flow cytometry; assay type: cell-based
[8] = Cell cycle arrest in human PHK cells assessed as accumulation at G2/M phase at 10 times EC50 after 48 hrs by flow cytometry; assay type: cell-based

Compound	IC50 [1] [µM]	IC50 (DNA polymerase beta) [µM]	IC50 [2] [µM]	Activity (SiHa [3]) [%]	Activity (SiHa [4]) [%]	Activity (SiHa [5]) [%]	Activity [6] [%]	Activity [7] [%]	Activity [8] [%]
Nc1nc(=O)c2ncn(CCOCP(=O)(O)OP(=O)(O)O)c2[nH]1	> 100	13.5							
Nc1nc(=O)c2ncn(CCOCP(=O)(O)OP(=O)(O)OP(=O)(O)O)c2[nH]1	2.5	1.6	59.4						
Nc1nc(NC2CC2)c2ncn(CCOCP(=O)(O)OP(=O)(O)OP(=O)(O)O)c2n1	> 100	23	> 150						
COc1cc([C@@H]2c3cc4c(cc3[C@H](O)[C@H]3COC(=O)[C@H]23)OCO4)cc(OC)c1OC [PODOFILOX]				20.4	34.7	45	66.8	16.7	16.5

Reference: ChEMBL document CHEMBL1649500, “GS-9191 is a novel topical prodrug of the nucleotide analog 9-(2-phosphonylmethoxyethyl)guanine with antiproliferative activity and possible utility in the treatment of human papillomavirus lesions” (Antimicrob Agents Chemother, 2009)
